Reference: article PMC5114558, “Reader domain specificity and lysine demethylase-4 family function” (Nature Communications, 2016)
Residue numbers refer to the chain shown, from its start. Where two headings read alike, the source gives them in different places. Blank lines part the entries; values can stand above or below the molecule they belong to.

Experiments:
KDM4B-DTD Y993A = target: T1, KDM4B-DTD Y993A (Homo sapiens, UniProt O94953, Y993A); assay: FP binding, KDM4B-DTD Y993A; settings: aromatic cage mutant, Supplementary Fig. 4d, value printed in peer review file
T1 construct: DNA encoding DTDs (KDM4A 895–1011aa, KDM4B 917–1031aa and KDM4C 877–991aa); (His)6-HaloTag (pFN29) or (His)6 (pET28b); made in house; host or cells: Escherichia coli BL21 (DE3)
T1 sequence (O94953 917-1031 Y993A): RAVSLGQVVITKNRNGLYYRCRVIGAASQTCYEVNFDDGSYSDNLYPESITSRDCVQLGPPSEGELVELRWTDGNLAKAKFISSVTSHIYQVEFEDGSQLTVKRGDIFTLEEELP
Excerpt: (§1) KDM4 protein sequences used in this study correspond to Uniprot ID: O75164 (human KDM4A, isoform 1), O94953 (human KDM4B, isoform1) and Q9H3R0 (human KDM4C, isoform1). Plasmid encoding KDM4A DTD was kindly provided by R-M Xu (Chinese Academy of Sciences). Complementary DNA encoding human KDM4B-DTD was synthesized (Integrated DNA Technologies). Plasmid containing cDNA of full-length KDM4C (clone ID: HsCD00341594) was obtained from Harvard Plasmid Repository. DNA encoding DTDs (KDM4A 895–1011aa, KDM4B 917–1031aa and KDM4C 877–991aa) were cloned into pFN29 (Promega) with N-terminal (His)6-HaloTag or pET28b with N-terminal (His)6 Tag using In-Fusion HD cloning kit (Clontech). […]
(§2) Peptide sequences are given in Supplementary Table 1. […] Polarization at each concentration was measured as triplicates in 384-well polystyrene black microplates (Thermo Fisher Scientific 262260) by Biotek Synergy H4 multimode plate reader (light source: xenon flash, offset from top: 7 mm, sensitivity: 60%, excitation: 485/20 nm, emission: 528/20 nm, both parallel and perpendicular, normal read speed). Fraction bound (Fb) at each concentration was calculated based on the corresponding polarization values (P): Fbc=(Pc−Pmin)/(Pmax−Pmin), where Pmin is the polarization value of no-protein control and Pmax is the polarization value of the saturation value for that peptide. […]

KDM4A-DTD N940A = target: T2, KDM4A-DTD N940A (Homo sapiens, UniProt O75164, N940A); assay: FP binding, KDM4A-DTD N940A; settings: pH 7.4, Fig. 2g, 4g (± s.d., three replicates) and text
T2 construct: DNA encoding DTDs (KDM4A 895–1011aa, KDM4B 917–1031aa and KDM4C 877–991aa); (His)6-HaloTag (pFN29) or (His)6 (pET28b); made in house; host or cells: Escherichia coli BL21 (DE3)
T2 sequence (O75164 895-1011 N940A): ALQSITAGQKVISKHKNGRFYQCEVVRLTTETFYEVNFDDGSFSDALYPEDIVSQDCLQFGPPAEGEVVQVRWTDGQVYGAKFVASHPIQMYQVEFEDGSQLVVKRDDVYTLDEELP
Excerpt: as §1, §2

[1] = target: T3, KDM4B DTD (human KDM4B double tudor domain, 917–1031aa) (Homo sapiens, UniProt O94953); assay: fluorescence polarization (FP) binding, KDM4B-DTD wild-type
T3 construct: DNA encoding DTDs (KDM4A 895–1011aa, KDM4B 917–1031aa and KDM4C 877–991aa); (His)6-HaloTag (pFN29) or (His)6 (pET28b); made in house; host or cells: Escherichia coli BL21 (DE3)
T3 sequence (O94953 917-1031): T1 sequence (O94953 917-1031 Y993A) with A77Y
Excerpt: (§3) KDM4 protein sequences used in this study correspond to Uniprot ID: O75164 (human KDM4A, isoform 1), O94953 (human KDM4B, isoform1) and Q9H3R0 (human KDM4C, isoform1). Plasmid encoding KDM4A DTD was kindly provided by R-M Xu (Chinese Academy of Sciences). Complementary DNA encoding human KDM4B-DTD was synthesized (Integrated DNA Technologies). Plasmid containing cDNA of full-length KDM4C (clone ID: HsCD00341594) was obtained from Harvard Plasmid Repository. DNA encoding DTDs (KDM4A 895–1011aa, KDM4B 917–1031aa and KDM4C 877–991aa) were cloned into pFN29 (Promega) with N-terminal (His)6-HaloTag or pET28b with N-terminal (His)6 Tag using In-Fusion HD cloning kit (Clontech). Plasmids encoding Xenopus laevis core histones were a generous gift of K. Luger (University of Colorado-Boulder). Site-directed mutagenesis was performed with Q5 Site-Directed Mutagenesis Kit (New England Biolabs).
(§4) Peptide sequences are given in Supplementary Table 1. […] A no-protein control with only peptide probe was included. Polarization at each concentration was measured as triplicates in 384-well polystyrene black microplates (Thermo Fisher Scientific 262260) by Biotek Synergy H4 multimode plate reader (light source: xenon flash, offset from top: 7 mm, sensitivity: 60%, excitation: 485/20 nm, emission: 528/20 nm, both parallel and perpendicular, normal read speed). Fraction bound (Fb) at each concentration was calculated based on the corresponding polarization values (P): Fbc=(Pc−Pmin)/(Pmax−Pmin), where Pmin is the polarization value of no-protein control and Pmax is the polarization value of the saturation value for that peptide. Dissociation constants (Kd) were derived by KaleidaGraph, Synergy Software (version 4.1.3) using the following equation: Fb=[protein]/([protein]+Kd).

[2] = target: T4, KDM4A DTD (human KDM4A double tudor domain, 895–1011aa) (Homo sapiens, UniProt O75164); assay: fluorescence polarization (FP) binding, KDM4A-DTD wild-type
T4 construct: DNA encoding DTDs (KDM4A 895–1011aa, KDM4B 917–1031aa and KDM4C 877–991aa); (His)6-HaloTag (pFN29) or (His)6 (pET28b); made in house; host or cells: Escherichia coli BL21 (DE3)
T4 sequence (O75164 895-1011): T2 sequence (O75164 895-1011 N940A) with A46N
Excerpt: as §3, §4

[3] = target: T5, KDM4A-DTD triple mutant N931D/D939R/D945R (DRR) (Homo sapiens, UniProt O75164, D939R/D945R/N931D); assay: FP binding, KDM4A-DTD DRR mutant
T5 construct: DNA encoding DTDs (KDM4A 895–1011aa, KDM4B 917–1031aa and KDM4C 877–991aa); (His)6-HaloTag (pFN29) or (His)6 (pET28b); made in house; host or cells: Escherichia coli BL21 (DE3)
T5 sequence (O75164 895-1011 N931D/D939R/D945R): T2 sequence (O75164 895-1011 N940A) with N37D, D45R, A46N, D51R
Excerpt: as §1, §2

KDM4A-DTD N931D = target: T6, KDM4A-DTD N931D (Homo sapiens, UniProt O75164, N931D); assay: FP binding, KDM4A-DTD N931D; settings: pH 7.4, Fig. 2j (± s.d., three replicates), Supplementary Fig. 2f and text
T6 construct: DNA encoding DTDs (KDM4A 895–1011aa, KDM4B 917–1031aa and KDM4C 877–991aa); (His)6-HaloTag (pFN29) or (His)6 (pET28b); made in house; host or cells: Escherichia coli BL21 (DE3)
T6 sequence (O75164 895-1011 N931D): T2 sequence (O75164 895-1011 N940A) with N37D, A46N
Excerpt: as §1, §2

[4] = target: T7, KDM4C DTD (human KDM4C double tudor domain, 877–991aa) (Homo sapiens, UniProt Q9H3R0); assay: fluorescence polarization (FP) binding, KDM4C-DTD wild-type
T7 construct: DNA encoding DTDs (KDM4A 895–1011aa, KDM4B 917–1031aa and KDM4C 877–991aa); (His)6-HaloTag (pFN29) or (His)6 (pET28b); made in house; host or cells: Escherichia coli BL21 (DE3)
T7 sequence (Q9H3R0 877-991): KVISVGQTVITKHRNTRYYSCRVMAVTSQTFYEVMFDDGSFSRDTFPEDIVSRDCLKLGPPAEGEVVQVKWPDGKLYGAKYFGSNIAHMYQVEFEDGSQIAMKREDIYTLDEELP
Excerpt: as §1, §2

KDM4A-DTD Y973A = target: T8, KDM4A-DTD Y973A (Homo sapiens, UniProt O75164, Y973A); assay: FP binding, KDM4A-DTD Y973A; settings: pH 7.4, aromatic cage mutant, Fig. 2e (± s.d., three replicates) and text
T8 construct: DNA encoding DTDs (KDM4A 895–1011aa, KDM4B 917–1031aa and KDM4C 877–991aa); (His)6-HaloTag (pFN29) or (His)6 (pET28b); made in house; host or cells: Escherichia coli BL21 (DE3)
T8 sequence (O75164 895-1011 Y973A limits assumed): T2 sequence (O75164 895-1011 N940A) with A46N, Y79A
Excerpt: as §1, §2

KDM4A-DTD N931R = target: T9, KDM4A-DTD N931R (Homo sapiens, UniProt O75164, N931R); assay: FP binding, KDM4A-DTD N931R; settings: pH 7.4, Fig. 2j (± s.d., three replicates) and text, read-out: binding affinity, KDM4A-DTD N931R
T9 construct: DNA encoding DTDs (KDM4A 895–1011aa, KDM4B 917–1031aa and KDM4C 877–991aa); (His)6-HaloTag (pFN29) or (His)6 (pET28b); made in house; host or cells: Escherichia coli BL21 (DE3)
T9 sequence (O75164 895-1011 N931R limits assumed): T2 sequence (O75164 895-1011 N940A) with N37R, A46N
Excerpt: as §1, §2

KDM4B-DTD = assay: biotinylated histone peptide pull-down, KDM4B-DTD; type: binding, human; settings: compared with KDM4A and KDM4C DTDs

- Kd (KDM4B-DTD Y993A): 327 µM
- Kd (KDM4A-DTD N940A): 57.4 µM
- Kd ([1]; Fig. 1c, 3 nM fluorescein-labelled peptide, pH 7.4, ± s.d. from three experimental replicates, read-out: binding constant (FP), KDM4B-DTD): 10.3 ± 1.2 µM
- Kd ([2]; pH 7.4, read-out: Kd, KDM4A-DTD wild-type): 2.2 µM
- Kd of DRR mutant [3]: low micromolar Kd value
- Kd (KDM4A-DTD N931D): 0.85 µM
- Kd ([4]; Fig. 1c, 3 nM fluorescein-labelled peptide, pH 7.4, ± s.d. from three experimental replicates, read-out: binding constant (FP), KDM4C-DTD): 73.6 ± 3.9 µM
- Kd (KDM4A-DTD Y973A): 285 µM
- Kd (KDM4A-DTD N931R): 73.9 µM
Molecule: CC(C)C[C@H](NC(=O)[C@H](CCC(N)=O)NC(=O)[C@H](CCCCN)NC(=O)[C@H](CCCNC(=N)N)NC(=O)c1ccc2c(c1)C(=O)OC21c2ccc(O)cc2Oc2cc(O)ccc21)C(=O)N[C@@H](C)C(=O)N[C@H](C(=O)N[C@@H](CCCC[N+](C)(C)C)C(=O)N[C@@H](C)C(=O)N[C@@H](C)C(=O)N[C@@H](CCCNC(=N)N)C(=O)N[C@@H](CCCCN)C(=O)N[C@@H](CO)C(=O)N[C@@H](C)C(=O)N1CCC[C@H]1C(=O)N[C@@H](C)C(=O)N[C@H](C(=O)O)[C@@H](C)O)[C@@H](C)O [H3K23me3]

- Kd ([1]; matrix Fig. 1d, pH 7.4, read-out: binding affinity (Kd), KDM4B DTD): 140 µM
- Kd ([2]; matrix Fig. 1d and Fig. 3c, pH 7.4, read-out: binding affinity (Kd), KDM4A DTD wild-type): 122 µM
- Kd ([3]; matrix Fig. 3c, values given in mM, pH 7.4, read-out: binding affinity (Kd), DRR mutant): 0.57 mM
- Kd ([4]; matrix Fig. 1d, pH 7.4, read-out: binding affinity (Kd), KDM4C DTD): 103 µM
Molecule: CC(C)C[C@H](NC(=O)[C@H](CCC(N)=O)NC(=O)[C@H](CCCCN)NC(=O)[C@H](CCCNC(=N)N)NC(=O)c1ccc2c(c1)C(=O)OC21c2ccc(O)cc2Oc2cc(O)ccc21)C(=O)N[C@@H](C)C(=O)N[C@H](C(=O)N[C@@H](CCCCN)C(=O)N[C@@H](C)C(=O)N[C@@H](C)C(=O)N[C@@H](CCCNC(=N)N)C(=O)N[C@@H](CCCC[N+](C)(C)C)C(=O)N[C@@H](CO)C(=O)N[C@@H](C)C(=O)N1CCC[C@H]1C(=O)N[C@@H](C)C(=O)N[C@H](C(=O)O)[C@@H](C)O)[C@@H](C)O [H3K27me3]

- pull-down binding of KDM4B-DTD (KDM4B-DTD): Decreased
Molecule: ARTK(Me3)QTARKSTE(PEGbiotin)W [H3K4me3 (biotinylated), H3K4me3 peptide for pull-down, PEGbiotin, in-house]
